US20050107606A1 (published 2005)

- melting point: 82 to 84 °C
SMILES: CCCn1cncc1CSc1ccc(NC(=O)C(F)(F)F)cc1
